Tests used:
JAK3 = biological target: T1, JAK3 (Homo sapiens, UniProt P52333); assay: Kinobeads assay, JAK3; assay type: binding; conditions: mixed Molt4/Ramos lysate, read-out: Inhibition values (IC50) JAK3
T1 construct: endogenous in cells; host or cells: Molt4 (ATCC CRL-1582) and Ramos (ATCC CRL-1596), mixed lysate 1:2
T1 sequence (P52333 1-1124): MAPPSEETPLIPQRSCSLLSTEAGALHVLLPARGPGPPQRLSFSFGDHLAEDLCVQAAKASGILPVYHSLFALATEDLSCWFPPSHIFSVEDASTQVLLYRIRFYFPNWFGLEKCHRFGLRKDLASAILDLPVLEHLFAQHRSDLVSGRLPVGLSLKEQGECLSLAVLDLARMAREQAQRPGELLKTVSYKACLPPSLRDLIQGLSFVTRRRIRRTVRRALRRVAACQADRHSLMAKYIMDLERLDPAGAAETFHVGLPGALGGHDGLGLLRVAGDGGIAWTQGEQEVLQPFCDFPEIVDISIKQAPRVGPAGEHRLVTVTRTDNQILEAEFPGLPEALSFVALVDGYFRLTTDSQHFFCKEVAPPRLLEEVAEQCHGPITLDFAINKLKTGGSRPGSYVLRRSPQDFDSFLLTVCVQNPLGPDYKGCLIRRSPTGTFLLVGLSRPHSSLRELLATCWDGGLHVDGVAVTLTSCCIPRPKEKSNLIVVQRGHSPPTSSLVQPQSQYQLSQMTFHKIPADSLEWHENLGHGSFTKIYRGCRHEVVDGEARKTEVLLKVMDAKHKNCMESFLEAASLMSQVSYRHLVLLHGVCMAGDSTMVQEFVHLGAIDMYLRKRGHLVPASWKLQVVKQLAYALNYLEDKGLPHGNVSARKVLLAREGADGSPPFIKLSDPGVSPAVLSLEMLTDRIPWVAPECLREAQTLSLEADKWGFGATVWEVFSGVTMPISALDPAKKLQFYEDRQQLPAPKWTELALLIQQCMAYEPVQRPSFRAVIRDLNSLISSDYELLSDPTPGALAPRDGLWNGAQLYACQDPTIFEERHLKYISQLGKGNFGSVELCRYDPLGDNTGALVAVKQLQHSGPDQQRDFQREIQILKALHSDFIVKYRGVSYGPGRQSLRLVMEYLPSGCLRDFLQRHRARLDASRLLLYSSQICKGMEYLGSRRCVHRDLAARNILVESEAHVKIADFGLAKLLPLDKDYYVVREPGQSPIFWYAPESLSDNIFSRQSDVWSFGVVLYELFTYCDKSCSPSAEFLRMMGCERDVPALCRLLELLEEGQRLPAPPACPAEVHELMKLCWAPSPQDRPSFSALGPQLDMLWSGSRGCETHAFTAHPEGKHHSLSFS
In short: (§1)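 Mixed Molt4/Ramos lysate (1:2, 10 mg/mL protein) was incubated 3 h in the cold with the immobilized aminopyrido-pyrimidine affinity matrix and compound, 9-step 1:3 dilutions. Bead-bound kinases were eluted and quantified by antibody dot blot with infrared detection. IC50s are from dose-response curves.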

TYK2 = biological target: T2, TYK2 (Homo sapiens, UniProt P29597); assay: Kinobeads assay, TYK2; assay type: binding; conditions: mixed Molt4/Ramos lysate, read-out: Inhibition values (IC50) TYK2
T2 construct: endogenous in cells; host or cells: Molt4 (ATCC CRL-1582) and Ramos (ATCC CRL-1596), mixed lysate 1:2
T2 sequence (P29597 whole entry): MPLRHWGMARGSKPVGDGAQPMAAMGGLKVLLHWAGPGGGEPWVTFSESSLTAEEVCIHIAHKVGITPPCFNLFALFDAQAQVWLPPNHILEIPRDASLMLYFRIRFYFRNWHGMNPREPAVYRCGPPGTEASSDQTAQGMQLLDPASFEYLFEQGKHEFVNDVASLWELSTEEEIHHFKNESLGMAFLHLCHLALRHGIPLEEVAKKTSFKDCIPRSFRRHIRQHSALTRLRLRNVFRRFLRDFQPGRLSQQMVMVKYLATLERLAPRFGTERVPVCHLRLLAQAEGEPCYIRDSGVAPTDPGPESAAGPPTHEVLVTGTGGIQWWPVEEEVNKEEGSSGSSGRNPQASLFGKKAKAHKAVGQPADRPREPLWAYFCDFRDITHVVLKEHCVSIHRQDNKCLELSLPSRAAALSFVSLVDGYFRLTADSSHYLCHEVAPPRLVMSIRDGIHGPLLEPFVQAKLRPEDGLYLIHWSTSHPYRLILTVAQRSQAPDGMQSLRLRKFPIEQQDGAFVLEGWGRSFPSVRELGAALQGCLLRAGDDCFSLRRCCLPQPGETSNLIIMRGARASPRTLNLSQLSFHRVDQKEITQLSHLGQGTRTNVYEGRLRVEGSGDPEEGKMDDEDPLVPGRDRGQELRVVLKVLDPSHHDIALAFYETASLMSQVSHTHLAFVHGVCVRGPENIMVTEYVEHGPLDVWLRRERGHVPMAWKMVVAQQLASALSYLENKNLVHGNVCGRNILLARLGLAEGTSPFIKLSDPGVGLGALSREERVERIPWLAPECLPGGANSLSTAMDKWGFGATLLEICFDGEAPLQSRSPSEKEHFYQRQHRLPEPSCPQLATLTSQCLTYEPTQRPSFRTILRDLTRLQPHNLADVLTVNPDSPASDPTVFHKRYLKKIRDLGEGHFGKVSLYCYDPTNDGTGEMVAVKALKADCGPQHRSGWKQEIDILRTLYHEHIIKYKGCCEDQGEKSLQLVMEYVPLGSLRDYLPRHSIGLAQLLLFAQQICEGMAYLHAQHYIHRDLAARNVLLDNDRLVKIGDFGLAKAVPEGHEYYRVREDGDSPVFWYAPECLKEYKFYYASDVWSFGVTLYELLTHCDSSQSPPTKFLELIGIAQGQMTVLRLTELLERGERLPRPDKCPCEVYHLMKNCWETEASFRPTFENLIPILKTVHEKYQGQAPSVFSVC
In short: as §1

Row | IC50 (JAK3) [nM] | IC50 (TYK2) [nM] | Structure (SMILES)
1 | < 100 | 100 to 1000 | OCCn1cc(Nc2ncc(Cl)c(N[C@H](CO)c3ccccc3F)n2)cn1 [Compound 77]
2 | < 100 | 1000 to 10000 | COc1cccc([C@@H](CO)Nc2nc(Nc3cnn(CC(N)=O)c3)ncc2Cl)c1 [Compound 84]
3 | < 100 | 1000 to 10000 | Cn1cc(Nc2ncc(Cl)c(NC(CO)c3ccccc3)n2)cn1 (centres unmarked) [Compound 1]
4 | 100 to 1000 | 1000 to 10000 | Cn1cc(Nc2ncc(F)c(NC(CO)c3ccccc3)n2)cn1 (centres unmarked) [Compound 2]
5 | < 100 | 1000 to 10000 | COc1cccc([C@@H](CO)Nc2nc(Nc3cnn(C)c3)ncc2Cl)c1 [Compound 82]
6 | < 100 | 1000 to 10000 | CNC(=O)Cn1cc(Nc2ncc(Cl)c(NC(CO)c3ccccc3F)n2)cn1 (centres unmarked) [Compound 33]
7 | < 100 | 1000 to 10000 | CNC(=O)Cn1cc(Nc2ncc(Cl)c(NC(CO)c3c(F)cccc3F)n2)cn1 (centres unmarked) [Compound 31]
8 | 100 to 1000 | ≥ 10000 | O=C(O)C(Nc1nc(Nc2cnn(CCO)c2)ncc1Cl)c1ccccc1 (centres unmarked) [Compound 17]
9 | 100 to 1000 | ≥ 10000 | Cn1cc(Nc2ncc(Cl)c(N[C@H](C(=O)N3CCCC3)c3ccccc3)n2)cn1 [Compound 34]
10 | < 100 | 1000 to 10000 | Cn1cc(Nc2ncc(Cl)c(N[C@H](CO)c3ccccc3F)n2)cn1 [Compound 58]
11 | < 100 | 100 to 1000 | CC(O)Cn1cc(Nc2ncc(Cl)c(NC(CO)c3c(F)cccc3F)n2)cn1 (centres unmarked) [Compound 42]
12 | 100 to 1000 | 1000 to 10000 | OCCn1cc(Nc2ncc(Cl)c(NC(CO)c3ccc(F)cc3)n2)cn1 (centres unmarked) [Compound 72]
13 | 100 to 1000 | 1000 to 10000 | COC(=O)C(Nc1nc(Nc2cnn(C)c2)ncc1Cl)c1ccccc1 (centres unmarked) [Compound 16]
14 | 100 to 1000 | 1000 to 10000 | OCCn1ccc(Nc2ncc(Cl)c(NC(CO)c3c(F)cccc3F)n2)n1 (centres unmarked) [Compound 45]
15 | < 100 | 1000 to 10000 | CN(C)C(=O)[C@@H](Nc1nc(Nc2cnn(CCO)c2)ncc1Cl)c1ccccc1 [Compound 26]
16 | < 100 | 1000 to 10000 | CNC(=O)Cn1cc(Nc2ncc(Cl)c(N[C@H](CO)c3ccccc3)n2)cn1 [Compound 23, (S)-2-(4-((5-chloro-4-((2-hydroxy-1-phenylethyl)amino)pyrimidin-2-yl)amino)-1H-pyrazol-1-yl)-N-methylacetamide]
17 | 100 to 1000 | 1000 to 10000 | Cn1cc(Nc2ncc(Cl)c(NC(CO)c3ccc(F)cc3)n2)cn1 (centres unmarked) [Compound 71]
18 | < 100 | 1000 to 10000 | CC(C)(O)Cn1cc(Nc2ncc(Cl)c(NC(CO)c3cccc(F)c3)n2)cn1 (centres unmarked) [Compound 61]
19 | < 100 | 1000 to 10000 | CC(C)(O)Cn1cc(Nc2ncc(Cl)c(NC(CO)c3c(F)cccc3F)n2)cn1 (centres unmarked) [Compound 62]
20 | < 100 | 100 to 1000 | OCCn1cc(Nc2ncc(Cl)c(N[C@H](CO)c3ccccn3)n2)cn1 [Compound 80]
21 | 100 to 1000 | ≥ 10000 | Cn1cc(Nc2ncc(Cl)c(NC(CO)c3cccc(-c4cnn(C)c4)c3)n2)cn1 (centres unmarked) [Compound 69]
22 | < 100 | 1000 to 10000 | CC(C)(C(N)=O)n1cc(Nc2ncc(Cl)c(N[C@H](CO)c3ccccc3F)n2)cn1 [Compound 73]

Row | IC50 (JAK3) [nM] | IC50 (TYK2) [nM] | Structure (SMILES)
23 | < 100 | 1000 to 10000 | O=C(NCCO)[C@@H](Nc1nc(Nc2cnn(CCO)c2)ncc1Cl)c1ccccc1 [Compound 47]
24 | < 100 | 1000 to 10000 | Cn1cc(Nc2ncc(Cl)c(NC(CO)c3ccccc3F)n2)cn1 (centres unmarked) [Compound 37]
25 | < 100 | 100 to 1000 | Cc1cnc(Nc2cnn(CC(=O)N3CCOCC3)c2)nc1NC(CO)c1c(F)cccc1F (centres unmarked) [Compound 169]
26 | 100 to 1000 | 1000 to 10000 | Cc1cnc(Nc2cnn(CC(F)F)c2)nc1NC(CO)c1c(F)cccc1F (centres unmarked) [Compound 168]
27 | < 100 | 100 to 1000 | O=C(Cn1cc(Nc2ncc(Cl)c(N[C@H](CO)c3ccccc3)n2)cn1)NC1CC1 [Compound 68]
28 | < 100 | 100 to 1000 | CCOC(=O)Cn1cc(Nc2ncc(Cl)c(N[C@H](CO)c3ccccc3)n2)cn1 [Compound 22]
29 | 100 to 1000 | ≥ 10000 | Cn1cc(Nc2ncc(Cl)c(N[C@H](C(=O)NC3CCCC3)c3ccccc3)n2)cn1 [Compound 59]
30 | < 100 | 100 to 1000 | CC(C)NC(=O)Cn1cc(Nc2ncc(Cl)c(N[C@H](CO)c3ccccc3)n2)cn1 [Compound 67]
31 | < 100 | 1000 to 10000 | COCCNC(=O)[C@@H](Nc1nc(Nc2cnn(C)c2)ncc1Cl)c1ccccc1 [Compound 29]
32 | 100 to 1000 | 1000 to 10000 | CNC(=O)Cn1cc(Nc2ncc(Cl)c(N[C@H](CCO)c3ccccc3)n2)cn1 [Compound 66]
33 | 100 to 1000 | ≥ 10000 | OCCn1ccc(Nc2ncc(Cl)c(NC(CO)c3cccc(F)c3)n2)n1 (centres unmarked) [Compound 41]
34 | < 100 | 1000 to 10000 | CCNC(=O)[C@@H](Nc1nc(Nc2cnn(C)c2)ncc1Cl)c1ccccc1 [Compound 28]
35 | 100 to 1000 | 1000 to 10000 | Cc1cnc(Nc2cnn(CCO)c2)nc1NC(CO)c1ccccc1 (centres unmarked) [Compound 12]
36 | < 100 | 100 to 1000 | CC(C)OC(=O)Cn1cc(Nc2ncc(Cl)c(N[C@H](CO)c3ccccc3)n2)cn1 [Compound 21]
37 | 100 to 1000 | 1000 to 10000 | Cn1cc(Nc2ncc(Cl)c(NC(CO)c3cccc(Br)c3)n2)cn1 (centres unmarked) [Compound 52]
38 | 100 to 1000 | ≥ 10000 | COC[C@@H](Nc1nc(Nc2cnn(C)c2)ncc1Cl)c1ccccc1 [Compound 55]
39 | < 100 | 1000 to 10000 | OC[C@@H](Nc1nc(Nc2cn[nH]c2)ncc1Cl)c1ccccc1F [Compound 79]
40 | < 100 | 1000 to 10000 | OCCCn1cc(Nc2ncc(Cl)c(NC(CO)c3ccccc3F)n2)cn1 (centres unmarked) [Compound 64]
41 | 100 to 1000 | 1000 to 10000 | O=C([C@@H](Nc1nc(Nc2cnn(CCO)c2)ncc1Cl)c1ccccc1)N1CCCC1 [Compound 35]
42 | 100 to 1000 | ≥ 10000 | Cn1ccc(Nc2ncc(Cl)c(N[C@H](CO)c3ccccc3)n2)n1 [Compound 11]
43 | 1000 to 10000 | 1000 to 10000 | OCCn1cc(Nc2ncc(Cl)c(N[C@@H](CO)c3ccccc3)n2)cn1 [Compound 63]

From US20140179664A1, “Heterocyclyl Pyrimidine Analogues As JAK Inhibitors” (Cellzome Limited, priority 2011, published 2014)
